Where no end group is shown, it is not given here.
Experiments:
[1] = tested on: Varicellovirus suidalpha1; type: cell-based; details: hylin-Pul3 at 20 μg/mL (10.8 μM), dHP3-84 at 75 μg/mL (34.5 μM); Vero monolayers, 90 min adsorption then 72 h at 37 °C, plaque titer, duplicate
Description: Antiviral activity assays were performed following a previously described protocol with slight modifications. The efficacy of the peptide compounds was assessed at different stages of the viral lifecycle, including adsorption, penetration, and intracellular replication. The hylin-Pul3 and dHP3-84 peptides were tested at non-cytotoxic concentrations of 20 μg/mL (10.8 μM) and 75 μg/mL (34.5 μM), respectively. Vero cell monolayers (African green monkey kidney cells) were cultured in 24-well plates and exposed to the peptide solutions along with serial 10-fold dilutions of Varicellovirus suidalpha1, formerly known as Herpes suis virus type 1 (HSV-1). The assays were performed in duplicate. […] The viral plaques that formed on the Vero cells were stained (1% crystal violet) and the viral titers were determined. The percentage viral inhibition was calculated by comparing the reduction in viral titer between the treatment and control groups. This was determined using the following formula: (2) % viral inhibition=100−A/B×100 where “A” represents the viral titer expressed in PFU/mL (Plaque-Forming Units per milliliter) obtained in the treated cultures and “B” is the viral titer expressed in PFU/mL obtained in the untreated cultures.

[2] = tested on: Klebsiella pneumoniae (ATCC 13883); type: cell-based
Description: (§1) Hylin-Pul3 and six derivatives (dHP3-31, dHP3-50, dHP3-50.137, dHP3-50.190, dHP3-84, and dHP3-84.39) were tested against two Gram-positive bacteria, Staphylococcus aureus (ATCC 25923) and Streptococcus mutans (ATCC 25175), as well as three Gram-negative bacteria: Escherichia coli (ATCC 25922), Klebsiella pneumoniae (ATCC 13883), and Acinetobacter baumannii (ATCC 13304). The minimal inhibitory concentration (MIC) was determined using the microbroth dilution.
(§2) The peptides were serially diluted in concentrations ranging 128 to 0.25 μM, with gentamicin serving as a positive control, which was serially diluted to concentrations of 20 to 0.04 μM. Bacterial cultures were prepared in Mueller–Hinton (MH) medium to achieve a final inoculum concentration of 5 × 10^5 CFU/mL. […] All tests were performed in duplicate and repeated across three independent experiments.

[3] = tested on: Staphylococcus aureus (ATCC 25923); type: cell-based
Description: as §1, §2

[4] = tested on: Escherichia coli (ATCC 25922); type: cell-based; details: for Reduction in MIC against E. coli compared to hylin-Pul3: versus parent peptide hylin-Pul3
Description: as §1, §2

[5] = tested on: Streptococcus mutans (ATCC 25175); type: cell-based
Description: as §1, §2

[6] = tested on: Acinetobacter baumannii (ATCC 13304); type: cell-based; details: for Reduction in MIC against A. baumannii compared to hylin-Pul3: versus parent peptide hylin-Pul3
Description: as §1, §2

[7] = tested on: Vero cells; type: cell-based, African green monkey; details: for CC50, concentration inducing 50% cell death in Vero cells / Cytotoxicity in Vero cells, CC50: 48 h
Description: The cytotoxicity of hylin-Pul3 and dHP3-84 peptides was evaluated on Vero cells procured from the Asociación Banco Argentino de Células (ABAC; Buenos Aires, Argentina). Cell viability was determined using the Neutral Red Uptake test (NRU) test, following a previously described methodology. The Vero cells were cultured in Minimum Essential Medium (MEM) supplemented with 8% fetal calf serum (FCS), 50 μg/mL gentamicin, and 2 mM glutamine. The cells were monitored by observing their morphological changes after 24 and 48 h of incubation.
For the NRU assay, the cells were seeded in 96-well culture plates at a density of 1 × 10^5 cells per well. The cell monolayers were treated with increasing concentrations of the peptide solutions (25–500 μg/mL) for 48 h in triplicate. The monolayers incubated with MM only were used as the control. Following exposure, the culture medium was replaced with 150 μL of a […] neutral red solution in MEM. After incubation at 37 °C for 3 h, the dye medium was discarded and the wells were gently washed with PBS. The intracellular dye was extracted using a mixture of acetic acid, ethanol, and water (1:50:49). After gentle agitation for 10 min, the absorbance values were measured at 540 nm.
The relative cell viability was calculated as a percentage of the NRU observed in the untreated control groups. The cell survival fraction was determined using the following formula: (4) Survival Fraction % (SF%)=D.O. treated cells/D.O. control cells×100

[8] = tested on: E. coli (ATCC 25922); assay: Synergistic checkerboard assay; type: cell-based, Escherichia coli
Description: Briefly, working solutions of the peptides were prepared and serially diluted by half across the rows and columns of a microplate, ensuring that each well contained a unique combination of peptide concentrations. The starting concentrations corresponded to the respective MIC values of each peptide, followed by two-fold serial dilutions.
Each well was filled with 50 µL of the peptide solution (individual or combined) and 50 µL of a bacterial suspension (1 × 10^6 CFU/mL), resulting in a final bacterial concentration of 5 × 10^5 CFU/mL. The individual peptide solutions served as positive controls, while the MH medium was employed as a negative control. The microplates were incubated at 37 °C overnight. The test was performed in three independent experiments. The fractional inhibitory concentrations index (ΣFIC) was calculated using the following equation: (1) ∑FIC =MIC(A) in combination/MIC(A) alone+MIC(B) in combination /MIC(B) alone
The FIC index (ΣFIC) was interpreted as follows: ΣFIC ≤ 0.5 indicated synergy; 0.5 < ΣFIC ≤ 4 indicated no effect; and 4 < ΣFIC indicated antagonism.

| Substance | Antiviral Activity, viral inhibition [1] [%] | Antimicrobial Activity (MIC) K. pneumoniae ATCC 13883 [2] [µM] | Antimicrobial Activity (MIC) S. aureus ATCC 25923 [3] [µM] | Antimicrobial Activity (MIC) E. coli ATCC 25922 [4] [µM] | Antimicrobial Activity (MIC) S. mutans ATCC 25175 [5] [µM] | Antimicrobial Activity (MIC) A. baumannii ATCC 13304 [6] [µM] | Cytotoxicity in Vero cells, MNCC [7] [µM] | CC50, concentration inducing 50% cell death in Vero cells [7] [µg/mL] | Cytotoxicity in Vero cells, CC50 [7] [µM] | Reduction in MIC against E. coli compared to hylin-Pul3 [4] [fold] | Reduction in MIC against A. baumannii compared to hylin-Pul3 [6] [fold] | Synergistic Activity, FIC Index (ΣFIC) ([8]; combination of dHP3-84 and dHP3-50.137, E. coli ATCC 25922, 5 × 10^5 CFU/mL, 37 °C overnight, three independent experiments, ΣFIC ≤ 0.5 = synergy) | Improvement of combined activity compared to each peptide individually ([8]; dHP3-84 + dHP3-50.137, E. coli) [fold] | Lower MIC than the original peptide against K. pneumoniae ([2]; versus hylin-Pul3) [fold] |
| --- | --- | --- | --- | --- | --- | --- | --- | --- | --- | --- | --- | --- | --- | --- |
| FLGALIPAIAGAIGGLIRK-NH2 [hylin-Pul3, reference compound] | 0 | >64 | 7.3 ± 1.6 | 32.0 ± 0.0 | 4.6 ± 1.6 | 32.0 ± 0.0 | 13.5 | 80 | 43.2 |  |  |  |  |  |
| RLGALIPAIRGAIKKLIKK-NH2 [dHP3-50] |  | 64.0 ± 0.0 | 18.6 ± 6.5 | 8.0 ± 0.0 | 8.0 ± 0.0 | 6.6 ± 2 |  |  |  | 4 | 4 |  |  |  |
| RLGKLIPRIAKAIGRLIRK-OH [dHP3-84] | 70 | 18.6 ± 6.5 | 9.3 ± 3.3 | 8.0 ± 0.0 | 7.3 ± 1.6 | 8.0 ± 0.0 | 57.6 | 230 | 105.9 | 4 | 4 | 0.5 | 2 | 4 |
| RRIALIPAIRGAIKKLIKK-NH2 [dHP3-50.190] |  | >64 | 29.3 ± 6.5 | 9.3 ± 3.2 | 32.0 ± 0.0 | 16.0 ± 0.0 |  |  |  |  |  |  |  |  |
